From US10266577B2, “GLP-1 derivatives, and uses thereof” (Novo Nordisk A/S, priority 2013, dated 2019) come the findings set out here.

The structures appear in SMILES notation.

Data set [1] is described as follows: Pharmacokinetic study in minipigs (i.v.). Conditions: male, Göttingen, minipig, in vivo, iv, 2 nmol/kg.
Description: (§1) The purpose of this study is to determine the protraction in vivo of the GLP-1 derivatives after i.v. administration to minipigs, i.e. the prolongation of their time in the body and thereby their time of action. This is done in a pharmacokinetic (PK) study, where the terminal half-life of the derivative in question is determined. By terminal half-life is meant the time it takes to halve a certain plasma concentration in the terminal elimination phase.
(§2) Male Göttingen minipigs were obtained from Ellegaard Göttingen Minipigs (Dalmose, Denmark) approximately 7-14 months of age and weighing approximately 16-35 kg were used in the studies. The minipigs were housed either individually (pigs with permanent catheters) or in a group and fed restrictedly once or twice daily with SDS minipig diet (Special Diets Services, Essex, UK).
(§3) After at least 2 weeks of acclimatisation two permanent central venous catheters were implanted in vena cava caudalis or cranialis in each animal. The animals were allowed 1 week recovery after the surgery, and were then used for repeated pharmacokinetic studies with a suitable wash-out period between successive GLP-1 derivative dosings.
(§4) Blood samples (for example 0.8 ml) were collected in EDTA buffer (8 mM) and then centrifuged at 4° C. and 1942G for 10 minutes.
(§5) Plasma was pipetted into Micronic tubes on dry ice, and kept at −20° C. until analysed for plasma concentration of the respective GLP-1 compound using LOCI. Individual plasma concentration-time profiles were analyzed by a non-compartmental pharmacokinetic method in Phoenix v. 6.2 (Pharsight Inc., Mountain View, Calif., USA), or other relevant software for PK analysis, and the resulting terminal half-lives (harmonic mean) determined.
Data set [2] has as its target T1, human GLP-1 receptor (Homo sapiens, UniProt P43220).
T1 construct: expressed in transfected cells; host or cells: BHK cells (parent line BHKTS13), clone FCW467-12A; membrane preparation
The data set is described as follows: GLP-1 receptor binding: competitive binding assay (125I-GLP-1, SPA) on isolated membranes at low and high HSA. The note with it: displacement of 125I-GLP-1. In general terms: Loss of bound radioactivity is the signal in a displacement assay; it reports binding, not function.
Description: The purpose of this example is to test the receptor binding of the GLP-1 derivatives in vitro. The receptor binding is a measure of affinity of a derivative for the human GLP-1 receptor.
In this type of assay a labelled ligand (in this case ^125I-GLP-1) is bound to the receptor. Each derivative is added in a series of concentrations to isolated membranes containing the human GLP-1 receptor and displacement of the labelled ligand is monitored. The receptor binding is reported as the concentration at which half of the labelled ligand is displaced from the receptor, the IC50 value.
The following chemicals were used in the assay: Human serum albumin (HSA) (Sigma A1653), DMEM w/o phenol red (Gibco 11880-028), Pen/strep (Invitrogen 15140-122), G418 (Invitrogen 10131-027), 1 M Hepes (Gibco 15630), EDTA (Invitrogen 15575-038), PBS (Invitrogen 14190-094), fetal calf serum (Invitrogen 16140-071), EGTA, MgCl2 (Merck 1.05832.1000), Tween 20 (Amresco 0850C335), SPA particles (wheat germ agglutinin (WGA) SPA beads, Perkin Elmer RPNQ0001), [^125I]-GLP-1]-(7-36)NH2 (produced in-house), OptiPlate™-96 (Packard 6005290).
Buffer 1 consisted of 20 mM Na-HEPES plus 10 mM EDTA and pH was adjusted to 7.4. Buffer 2 consisted of 20 mM Na-HEPES plus 0.1 mM EDTA and pH was adjusted to 7.4. Assay buffer consisted of 50 mM HEPES supplemented with 5 mM EGTA, 5 mM MgCl2, 0.005% Tween 20 and pH was adjusted to 7.4. An 8% albumin stock consisted of HSA dissolved at 8% (w/v) in assay buffer. An 0.02% albumin stock consisted of HSA dissolved at 0.02% (w/v) in assay buffer.
The cells express the human GLP-1 receptor.
The cells were grown at 5% CO2 in DMEM, 10% fetal calf serum, 1% Pen/Strep (Penicillin/Streptomycin) and 1.0 mg/ml of the selection marker G418.
To make a membrane preparation the cells were grown to approximately 80% confluence. The cells were washed twice in phosphate-buffered saline and harvested. The cells were pelleted using a brief centrifugation and the cell pellet was kept on ice. The cell pellet was homogenised with ULTRA-THURRAX™ dispersing instrument for 20-30 seconds in a suitable amount of buffer 1 (e.g., 10 ml). The homogenate was centrifuged for 15 minutes. The pellet was re-suspended (homogenised) in 10 ml buffer 2 and centrifuged. This step was repeated once more. The resulting pellet was re-suspended in buffer 2 and the protein concentration was determined. The membranes were aliquoted and stored at minus 80° C.
For the receptor binding assay in the presence of low HSA (0.005%) 50 μl of the assay buffer was added to each well of an assay plate. Assay continued with step 3.
For the receptor binding assay in the presence of high HSA (2%) 50 μl of the 8% albumin stock was added to each well of an assay plate. Assay continued with step 3.
Cell membrane aliquots were thawed and diluted to their working concentration. Fifty μl were added to each well in the assay plate.
WGA SPA beads were suspended in assay buffer at 20 mg/ml. The suspension was diluted to 10 mg/ml in assay buffer just prior to addition to the assay plate. Fifty μl were added to each well in the assay plate.
The incubation was started by adding 25 μl of 480 pM solution of [^125I]-GLP-1]-(7-36)NH2 to each well of the assay plate. A 25 μl aliquot was reserved for measuring total counts/well.
The assay plate was incubated for 2 h at 30° C.
The assay plate was centrifuged for 10 min.
The assay plate was read in a Packard TopCount NXT instrument.
The data from the TopCount instrument were transferred to GraphPad Prism software. The software averaged the values for the replicates and performed a non-linear regression. IC50 values were calculated by the software and reported in nM.

The target of data set [3] is T1, human GLP-1 receptor. Put plainly: In vitro potency: CRE luciferase reporter gene assay in BHK cells expressing the human GLP-1 receptor. The class given is cell-based. Conditions: whole cell reporter gene assay, BHK clone FCW467-12A/KZ10-1; averages of at least two replicates. For orientation: Reporter assays use an easily measured gene product as a stand-in for the process of interest.
Description: The purpose of this example is to test the activity, or potency, of the GLP-1 derivatives in vitro. The in vitro potency is the measure of human GLP-1 receptor activation in a whole cell assay.
In vitro potency was determined by measuring the response of the human GLP-1 receptor in a reporter gene assay. The assay was performed in a stably transfected BHK cell line that expresses the human GLP-1 receptor and contains the DNA for the cAMP response element (CRE) coupled to a promoter and the gene for firefly luciferase (CRE luciferase). When the human GLP-1 receptor is activated it results in the production of cAMP, which in turn results in the luciferase protein being expressed. When assay incubation is completed the luciferase substrate (luciferin) is added and the enzyme converts luciferin to oxyluciferin to produce bioluminescence. The luminescence is measured as the readout for the assay.
The cells were cultured at 5% CO2 in Cell Culture Medium. They were aliquoted and stored in liquid nitrogen. Before each assay an aliquot is taken up and washed twice in PBS before being suspended at the desired concentration in the assay specific buffer. For 96-well plates the suspension was made to give a final concentration of 5×10^3 cells/well.
The following chemicals were used in the assay: Pluronic F-68 (10%) (Gibco 2404), human serum albumin (HSA) (Sigma A9511), ovalbumin (Sigma A5503), DMEM w/o phenol red (Gibco 11880-028), 1 M Hepes (Gibco 15630), Glutamax 100× (Gibco 35050) and steadylite plus (PerkinElmer 6016757).
Cell Culture Medium consisted of DMEM medium with 10% FBS (Fetal Bovine Serum; Invitrogen 16140-071), 1 mg/ml G418 (Invitrogen 15140-122), 240 nM MTX (methotrexate; Sigma M9929) and 1% pen/strep (penicillin/streptomycin; Invitrogen 15140-122).
Assay Medium consisted of DMEM w/o phenol red, 10 mM Hepes and 1× Glutamax. The Assay Buffer consisted of 2% ovalbumin and 0.2% Pluronic F-68 in Assay Medium.
1) Cell stocks were thawed in a 37° C. water bath.
2) Cells were washed three times in PBS.
3) The cells were counted and adjusted to 5×10^3 cells/50 μl (1×10^5 cells/ml) in Assay Medium. A 50 μl aliquot of cells was transferred to each well in the assay plate.
4) Stocks of the test compounds and reference compounds were diluted to a concentration of 0.2 pM in Assay Buffer. […] Compounds were tested at the following final concentrations: 1×10^−7 M, 1×10^−8 M; 1×10^−9 M, 1×10^−10 M, 1×10^−11 M, 1×10^−12 M, 1×10^−13 M, and 1×10^−14 M. 6) The assay plate was incubated for 3 h in a 5% CO2 incubator at 37° C. 7) The assay plate was removed from the incubator and allowed to stand at room temperature for 15 min. 8) A 100 μl aliquot of steadylite plus reagent was added to each well of the assay plate (reagent was light sensitive). 9) Each assay plate was covered with aluminum foil to protect it from light and shaken for 30 min at room temperature. 10) Each assay plate was read in a Packard TopCount NXT instrument. Calculations and Results
The data from the TopCount instrument were transferred to GraphPad Prism software. The software performs a non-linear regression (log(agonist) vs response).
A minimum of two replicates was measured for each sample. The reported values are averages of the replicates.

Data set [4] is described as follows: in vivo. The note with it: male, Göttingen, minipig, iv.
Description: as §1, §2, §3, §4, §5

T1 sequence (P43220 24-463): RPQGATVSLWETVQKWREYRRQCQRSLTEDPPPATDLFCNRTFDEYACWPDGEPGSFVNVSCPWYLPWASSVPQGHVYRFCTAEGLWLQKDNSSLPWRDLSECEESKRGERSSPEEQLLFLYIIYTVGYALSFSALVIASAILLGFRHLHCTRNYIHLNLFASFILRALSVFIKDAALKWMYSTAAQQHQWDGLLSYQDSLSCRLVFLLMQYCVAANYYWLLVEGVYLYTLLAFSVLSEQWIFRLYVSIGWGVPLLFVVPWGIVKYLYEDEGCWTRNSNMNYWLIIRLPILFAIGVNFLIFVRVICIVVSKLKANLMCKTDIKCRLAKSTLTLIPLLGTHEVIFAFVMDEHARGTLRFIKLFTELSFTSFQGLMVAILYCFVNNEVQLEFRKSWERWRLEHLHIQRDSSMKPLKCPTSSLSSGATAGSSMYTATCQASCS

On to `CC[C@H](C)[C@H](NC(=O)[C@H](Cc1ccccc1)NC(=O)[C@H](CCC(=O)O)NC(=O)[C@H](CCCNC(=N)N)NC(=O)[C@H](C)NC(=O)[C@H](C)NC(=O)[C@H](CCC(N)=O)NC(=O)[C@H](CCCCNC(=O)COCCOCCNC(=O)COCCOCCNC(=O)CC[C@H](NC(=O)[C@H]1CC[C@H](CNC(=O)CCCCCCCCCCCCCCCS(=O)(=O)O)CC1)C(=O)O)NC(=O)[C@H](CCC(=O)O)NC(=O)[C@H](CC(C)C)NC(=O)[C@H](Cc1ccc(O)cc1)NC(=O)[C@H](CCCCNC(=O)COCCOCCNC(=O)COCCOCCNC(=O)CC[C@H](NC(=O)[C@H]1CC[C@H](CNC(=O)CCCCCCCCCCCCCCCS(=O)(=O)O)CC1)C(=O)O)NC(=O)[C@H](CO)NC(=O)[C@@H](NC(=O)[C@H](CC(=O)O)NC(=O)[C@H](CO)NC(=O)[C@@H](NC(=O)[C@H](Cc1ccccc1)NC(=O)[C@@H](NC(=O)CNC(=O)[C@H](CCC(=O)O)NC(=O)C(C)(C)NC(=O)[C@@H](N)Cc1c[nH]cn1)[C@@H](C)O)[C@@H](C)O)C(C)C)C(=O)N[C@@H](CCCCNC(=O)COCCOCCNC(=O)COCCOCCNC(=O)CC[C@H](NC(=O)[C@H]1CC[C@H](CNC(=O)CCCCCCCCCCCCCCCS(=O)(=O)O)CC1)C(=O)O)C(=O)N[C@@H](Cc1c[nH]c2ccccc12)C(=O)N[C@@H](CC(C)C)C(=O)N[C@H](C(=O)N[C@@H](CCCNC(=N)N)C(=O)NCC(=O)N[C@@H](CCCNC(=N)N)C(=O)NCC(=O)O)C(C)C` [Example 1], for which the half-life (usually how long it takes for the measured level to halve) in data set [1] was 6.75 days.

For `CC[C@H](C)[C@H](NC(=O)[C@H](Cc1ccccc1)NC(=O)[C@H](CCC(=O)O)NC(=O)[C@H](CCCNC(=N)N)NC(=O)[C@H](C)NC(=O)[C@H](C)NC(=O)[C@H](CCC(N)=O)NC(=O)[C@H](CCCCNC(=O)COCCOCCNC(=O)COCCOCCNC(=O)[C@@H](N)CCCCNC(=O)[C@@H](N)CCCCNC(=O)CCCCCCCCCCCCCCCS(=O)(=O)O)NC(=O)[C@H](CCC(=O)O)NC(=O)[C@H](CC(C)C)NC(=O)[C@H](Cc1ccc(O)cc1)NC(=O)[C@H](CCCCNC(=O)COCCOCCNC(=O)COCCOCCNC(=O)[C@@H](N)CCCCNC(=O)[C@@H](N)CCCCNC(=O)CCCCCCCCCCCCCCCS(=O)(=O)O)NC(=O)[C@H](CO)NC(=O)[C@@H](NC(=O)[C@H](CC(=O)O)NC(=O)[C@H](CO)NC(=O)[C@@H](NC(=O)[C@H](Cc1ccccc1)NC(=O)[C@@H](NC(=O)CNC(=O)[C@H](CCC(=O)O)NC(=O)C(C)(C)NC(=O)[C@@H](N)Cc1c[nH]cn1)[C@@H](C)O)[C@@H](C)O)C(C)C)C(=O)N[C@@H](CCCCNC(=O)COCCOCCNC(=O)COCCOCCNC(=O)[C@@H](N)CCCCNC(=O)[C@@H](N)CCCCNC(=O)CCCCCCCCCCCCCCCS(=O)(=O)O)C(=O)N[C@@H](Cc1c[nH]c2ccccc12)C(=O)N[C@@H](CC(C)C)C(=O)N[C@H](C(=O)N[C@@H](CCCNC(=N)N)C(=O)NCC(=O)N[C@@H](CCCNC(=N)N)C(=O)NCC(=O)O)C(C)C` [Example 14], the IC50 (usually the concentration needed to halve the response being measured) in data set [2] (high serum albumin (2.0% HSA final assay concentration)) is 100 nM. Also, the EC50 (commonly the concentration giving half of the maximal effect) in data set [3] is 0.018 nM. In data set [4], this molecule gave a half-life of 5.83 days.

With `CC[C@H](C)[C@H](NC(=O)[C@H](Cc1ccccc1)NC(=O)[C@H](CCC(=O)O)NC(=O)[C@H](CCCNC(=N)N)NC(=O)[C@H](C)NC(=O)[C@H](C)NC(=O)[C@H](CCC(N)=O)NC(=O)[C@H](CCCCNC(=O)COCCOCCNC(=O)COCCOCCNC(=O)COCCOCCNC(=O)COCCOCCNC(=O)COCCOCCNC(=O)[C@@H](N)CCCCNC(=O)[C@@H](N)CCCCNC(=O)CCCCCCCCCCCCCCCCC(=O)O)NC(=O)[C@H](CCC(=O)O)NC(=O)[C@H](CC(C)C)NC(=O)[C@H](Cc1ccc(O)cc1)NC(=O)[C@H](CCCCNC(=O)COCCOCCNC(=O)COCCOCCNC(=O)COCCOCCNC(=O)COCCOCCNC(=O)COCCOCCNC(=O)[C@@H](N)CCCCNC(=O)[C@@H](N)CCCCNC(=O)CCCCCCCCCCCCCCCCC(=O)O)NC(=O)[C@H](CO)NC(=O)[C@@H](NC(=O)[C@H](CC(=O)O)NC(=O)[C@H](CO)NC(=O)[C@@H](NC(=O)[C@H](Cc1ccccc1)NC(=O)[C@@H](NC(=O)CNC(=O)[C@H](CCC(=O)O)NC(=O)C(C)(C)NC(=O)[C@@H](N)Cc1c[nH]cn1)[C@@H](C)O)[C@@H](C)O)C(C)C)C(=O)N[C@@H](CCCCNC(=O)COCCOCCNC(=O)COCCOCCNC(=O)COCCOCCNC(=O)COCCOCCNC(=O)COCCOCCNC(=O)[C@@H](N)CCCCNC(=O)[C@@H](N)CCCCNC(=O)CCCCCCCCCCCCCCCCC(=O)O)C(=O)N[C@@H](Cc1c[nH]c2ccccc12)C(=O)N[C@@H](CC(C)C)C(=O)N[C@H](C(=O)N[C@@H](CCCNC(=N)N)C(=O)NCC(=O)N[C@@H](CCCNC(=N)N)C(=O)NCC(=O)O)C(C)C` [Example 16], the Low HSA IC50 in data set [2] (Low HSA IC50, low serum albumin (max. 0.001% final assay concentration)) amounted to 0.4 nM. In addition, a half-maximal response in data set [3] (EC50) required 0.014 nM.
